Read-outs that look alike come from different tables or passages of the source.
Tests used:
[1] = test system: Mur pathway (MurA-MurF) enzymes from Mtb; assay: one-pot assay reconstructing the Mur pathway (Pi release), inhibitor studies; type: biochemical, Mycobacterium tuberculosis; details: for Percentage inhibition, one-pot assay: at 100 μM concentration of compound; for IC50: six compound concentrations 5-100 μM, 15 min pre-incubation, 30 min at 37 °C, 5% DMSO control
MurA = MurA (Mycobacterium tuberculosis, UniProt P9WJM1); assay: inhibition of individual Mur enzyme: MurA; type: biochemical; details: for remaining activity at 100 µM: at 100 μM compound, vs 'no drug' control (5% DMSO), read-out: RA (residual activity), MurA
Sequence of MurA (P9WJM1 whole entry): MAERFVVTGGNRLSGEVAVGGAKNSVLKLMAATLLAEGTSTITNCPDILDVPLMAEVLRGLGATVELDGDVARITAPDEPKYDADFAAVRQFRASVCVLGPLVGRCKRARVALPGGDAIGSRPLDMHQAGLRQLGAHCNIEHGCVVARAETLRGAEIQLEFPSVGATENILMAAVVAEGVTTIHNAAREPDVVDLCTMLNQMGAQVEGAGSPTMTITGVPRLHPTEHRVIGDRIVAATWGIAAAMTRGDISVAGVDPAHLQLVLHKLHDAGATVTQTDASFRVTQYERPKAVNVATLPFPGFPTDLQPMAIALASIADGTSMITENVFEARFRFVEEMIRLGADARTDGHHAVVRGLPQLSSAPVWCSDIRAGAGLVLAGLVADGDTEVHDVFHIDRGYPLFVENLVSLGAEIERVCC
Method: The reaction was performed in a micro-titer plate at 37 °C for 30 minutes and terminated by the addition of Pi Colorlock™ Assay reagent. Absorbance was measured at 630 nm and the amount of Pi released was calculated from the standard phosphate curve. […] The control reactions contained all the components except MurA. The net Pi was calculated by subtracting total Pi in the control reaction from the total Pi after the completion of the assay. To get a large assay window and to avoid saturation of Pi, optimization of assays were carried out at substrate concentrations so as not to exceed the assay signal beyond 2.0 absorbance units as recommended by the manufacturer of PiColorlock™ Assay kit.
(§1) Tested compounds at various concentrations (5–100 μM) were pre-incubated with enzymes for 15 mins, followed by the addition of remaining constituents of the assay. The final reaction mixture was incubated for 30 mins at 37 °C. To assess specific inhibition of Mur ligases, each of the ligase was pre-incubated with inhibitors separately and then added to the one-pot reaction mixture. The net Pi released was calculated as described earlier. In the ‘no drug’ control reaction, the organic solvent (DMSO) used in dissolving inhibitory compounds was added at 5% concentration to the one-pot assay, while Isoniazid, a standard anti-TB drug with no known effect on Mur activity, was inculded as another control to ascertain the specificity of the tested inhibitors in the study.

MurD = MurD (Mycobacterium tuberculosis, UniProt P9WJL5); assay: inhibition of individual Mur enzyme: MurD; type: biochemical; details: for remaining activity at 100 µM: at 100 μM compound, vs 'no drug' control (5% DMSO), read-out: RA (residual activity), MurD
Sequence of MurD (P9WJL5 whole entry): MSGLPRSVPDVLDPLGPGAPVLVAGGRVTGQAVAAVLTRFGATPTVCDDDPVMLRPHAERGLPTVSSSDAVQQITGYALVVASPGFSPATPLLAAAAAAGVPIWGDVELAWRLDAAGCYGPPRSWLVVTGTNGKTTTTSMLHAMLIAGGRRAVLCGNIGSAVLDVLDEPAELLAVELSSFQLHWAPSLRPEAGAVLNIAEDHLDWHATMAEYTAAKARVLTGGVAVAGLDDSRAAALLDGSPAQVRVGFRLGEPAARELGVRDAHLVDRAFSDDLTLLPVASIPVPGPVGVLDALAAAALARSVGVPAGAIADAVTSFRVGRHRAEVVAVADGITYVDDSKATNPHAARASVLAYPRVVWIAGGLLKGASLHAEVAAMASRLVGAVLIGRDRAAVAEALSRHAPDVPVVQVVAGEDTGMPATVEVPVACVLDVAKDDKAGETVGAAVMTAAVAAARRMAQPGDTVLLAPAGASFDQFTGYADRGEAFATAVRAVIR
Method: (§2) Each Mur ligase reaction was performed at 37 °C with an incubation period of 1 h. To measure the activity of MurC, the completed MurB reaction was supplemented with 1 mM L-Alanine, 10 mM MgCl2 and 1 mM ATP. MurD-F ligase activities were performed sequentially, supplementing the prior reaction with 1 mM each of the required substrate (D-Glutamate, meso-Diaminopimelic acid and D -Alanine-D-Alanine, respectively). The control reaction contained all the components except the enzyme that was being tested (e.g. the control reaction for MurC assay contained all the components except MurC). For MurD and MurF reaction, purified MBP at 1 μg concentration was added to the reaction mixture instead of the enzymes. Estimation of net Pi was done as previously described in the MurA assay.
as §1

MurE from E.coli = test system: MurE from E.coli; design: method as in PMID 25851408; details: range stated jointly for MurE and MurF; cited from earlier work
MurF = MurF (Mycobacterium tuberculosis, UniProt P9WJL1); assay: inhibition of individual Mur enzyme: MurF; type: biochemical
Sequence of MurF (P9WJL1 whole entry): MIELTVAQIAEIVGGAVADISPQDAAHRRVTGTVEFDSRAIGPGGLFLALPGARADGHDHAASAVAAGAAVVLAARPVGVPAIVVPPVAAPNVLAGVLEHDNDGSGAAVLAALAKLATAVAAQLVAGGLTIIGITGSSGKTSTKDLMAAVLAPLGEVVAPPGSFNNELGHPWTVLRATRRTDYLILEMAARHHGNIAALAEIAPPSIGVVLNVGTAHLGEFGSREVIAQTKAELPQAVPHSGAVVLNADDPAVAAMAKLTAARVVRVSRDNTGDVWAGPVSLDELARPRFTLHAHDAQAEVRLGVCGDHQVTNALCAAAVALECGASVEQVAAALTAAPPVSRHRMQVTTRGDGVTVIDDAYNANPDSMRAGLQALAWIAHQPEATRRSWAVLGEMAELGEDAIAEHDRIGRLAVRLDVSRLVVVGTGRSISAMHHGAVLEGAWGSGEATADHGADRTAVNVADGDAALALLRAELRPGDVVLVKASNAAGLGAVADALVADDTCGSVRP
Method: as §2, §1

MurE = MurE (Mycobacterium tuberculosis, UniProt P9WJL3); assay: inhibition of individual Mur enzyme: MurE; type: biochemical
Sequence of MurE (P9WJL3 whole entry): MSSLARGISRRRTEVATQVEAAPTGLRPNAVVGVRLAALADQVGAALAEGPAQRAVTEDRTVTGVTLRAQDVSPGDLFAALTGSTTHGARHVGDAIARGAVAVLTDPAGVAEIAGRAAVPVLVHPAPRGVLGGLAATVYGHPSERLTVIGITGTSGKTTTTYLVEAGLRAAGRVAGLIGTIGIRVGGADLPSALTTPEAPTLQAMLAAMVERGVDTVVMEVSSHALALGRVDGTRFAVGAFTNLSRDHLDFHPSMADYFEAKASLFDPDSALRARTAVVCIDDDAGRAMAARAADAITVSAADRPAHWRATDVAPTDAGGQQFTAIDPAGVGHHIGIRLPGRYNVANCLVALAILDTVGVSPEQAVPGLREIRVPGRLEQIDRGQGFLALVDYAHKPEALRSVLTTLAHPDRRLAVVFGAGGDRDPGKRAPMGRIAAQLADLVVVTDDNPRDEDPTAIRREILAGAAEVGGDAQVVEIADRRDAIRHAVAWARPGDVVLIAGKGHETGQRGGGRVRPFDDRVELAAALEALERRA

MurB = MurB (Mycobacterium tuberculosis, UniProt P9WJL9); assay: inhibition of individual Mur enzyme: MurB; type: biochemical; details: for remaining activity at 100 µM: at 100 μM compound, vs 'no drug' control (5% DMSO), read-out: RA (residual activity), MurB
Sequence of MurB (P9WJL9 whole entry): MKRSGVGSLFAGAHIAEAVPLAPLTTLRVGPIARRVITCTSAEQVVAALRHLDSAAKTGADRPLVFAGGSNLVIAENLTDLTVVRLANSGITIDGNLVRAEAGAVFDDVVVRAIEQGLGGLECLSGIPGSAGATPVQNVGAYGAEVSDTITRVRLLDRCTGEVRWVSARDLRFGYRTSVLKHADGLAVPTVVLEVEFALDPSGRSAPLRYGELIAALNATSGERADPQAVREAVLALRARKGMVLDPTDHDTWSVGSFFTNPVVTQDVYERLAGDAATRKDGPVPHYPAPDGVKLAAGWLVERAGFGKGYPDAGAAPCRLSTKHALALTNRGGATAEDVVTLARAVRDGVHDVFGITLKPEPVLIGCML
Method: To assay MurB activity, the MurA reaction after 30 mins of incubation was supplemented with 10 mM KCl, 0.2 mM NADPH and 60 nM of MurB enzyme in a total volume of 100 μl. The absorbance at 340 nm was monitored over 5 min to calculate the rate of NADPH oxidation. The control reaction contained all the components except MurB.
as §1

MurC = MurC (Mycobacterium tuberculosis, UniProt P9WJL7); assay: inhibition of individual Mur enzyme: MurC; type: biochemical; details: for remaining activity at 100 µM: at 100 μM compound, vs 'no drug' control (5% DMSO), read-out: RA (residual activity), MurC
Sequence of MurC (P9WJL7 whole entry): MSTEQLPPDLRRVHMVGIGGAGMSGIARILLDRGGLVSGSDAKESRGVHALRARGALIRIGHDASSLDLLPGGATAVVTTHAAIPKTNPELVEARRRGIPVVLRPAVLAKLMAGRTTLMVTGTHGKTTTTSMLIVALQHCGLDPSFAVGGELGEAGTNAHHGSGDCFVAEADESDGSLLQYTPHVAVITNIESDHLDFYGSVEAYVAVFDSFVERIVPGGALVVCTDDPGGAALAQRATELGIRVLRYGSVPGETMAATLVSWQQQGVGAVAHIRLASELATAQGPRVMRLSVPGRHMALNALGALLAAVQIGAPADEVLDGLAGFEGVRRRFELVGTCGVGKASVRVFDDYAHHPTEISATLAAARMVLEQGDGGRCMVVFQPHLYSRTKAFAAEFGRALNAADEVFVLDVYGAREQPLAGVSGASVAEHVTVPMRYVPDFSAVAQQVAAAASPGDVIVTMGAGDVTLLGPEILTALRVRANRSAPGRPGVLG
Method: as §2, §1

C=C(OP(=O)(O)O)C(=O)O = assay: purified protein, by the assay type; details: pH 7.0; 37.0 °C
[2] = test system: Mur pathway (MurA-MurF) enzymes from Mtb; assay: ESI-MS analysis of one-pot assay with inhibitor; type: biochemical, Mycobacterium tuberculosis; details: Fig. S5

| Compound | Percentage inhibition, one-pot assay [1] | IC50 [1] | inhibition of MurA (in words) (MurA) | remaining activity at 100 µM (MurA) | inhibition of MurD (in words) (MurD) | remaining activity at 100 µM (MurD) | IC50 (MurE from E.coli) | IC50 (MurF) | IC50 (MurE) | inhibition of MurB (in words) (MurB) | remaining activity at 100 µM (MurB) | inhibition of MurC (in words) (MurC) | remaining activity at 100 µM (MurC) | Km (C=C(OP(=O)(O)O)C(=O)O) | Vmax (C=C(OP(=O)(O)O)C(=O)O) | final product (UDP-MurNAc pentapeptide) formation in one-pot assay by ESI-MS [2] | IC50 (MurE; six compound concentrations 5-100 μM, read-out: IC50, MurE) |
| --- | --- | --- | --- | --- | --- | --- | --- | --- | --- | --- | --- | --- | --- | --- | --- | --- | --- |
| O=C(O)c1cc(-c2ccc(/C=C3/SC(=S)N(c4cccc([N+](=O)[O-])c4)C3=O)o2)ccc1Cl [Compound 4] | 93% | 8.25 µM | did not inhibit | > 100% | marginal inhibition | 85% | 11 to 16 µM | 25.8 µM | 17 µM | did not inhibit | > 100% | marginal inhibition | 73% |  |  |  |  |
| Mtb MurA (Mycobacterium tuberculosis H37Rv) |  |  |  |  |  |  |  |  |  |  |  |  |  | 527.8 µM | 0.173 µM/min |  |  |
| N[C@@H]1CON=C1O [D-Cycloserine, reference compound] |  | 74 µM |  | > 100% |  | 72% |  | 67.1 µM |  |  | > 100% |  | 64% |  |  | inhibition of final product formation | 97 µM |
| O=C(O)c1cc(-c2ccc(/C=C3/SC(=S)N(c4ccc([N+](=O)[O-])cc4)C3=O)o2)ccc1Cl [Compound 3] | 97% | 19.6 µM | marginal inhibition | 75% | marginal inhibition | 88% | 11 to 16 µM | 45.4 µM | 61.6 µM | no inhibition | > 100% | marginal inhibition | 66% |  |  |  |  |

From article PMC5062083, “Development of a one-pot assay for screening and identification of Mur pathway inhibitors in Mycobacterium tuberculosis” (Scientific Reports, 2016)
